Results reported in BindingDB's records for doi:10.1021/jm1005989 (Pfizer, 2010).
pEC50: −log10 of the molar value.

Biological target: Beta-2 adrenergic receptor (Homo sapiens, UniProt P07550)
Experiment: Agonist activity at human recombinant beta2 adrenergic receptor expressed in CHO cells assessed as elevation in cAMP level after 1 hr by flashplate method

Chain of Beta-2 adrenergic receptor (P07550 whole entry): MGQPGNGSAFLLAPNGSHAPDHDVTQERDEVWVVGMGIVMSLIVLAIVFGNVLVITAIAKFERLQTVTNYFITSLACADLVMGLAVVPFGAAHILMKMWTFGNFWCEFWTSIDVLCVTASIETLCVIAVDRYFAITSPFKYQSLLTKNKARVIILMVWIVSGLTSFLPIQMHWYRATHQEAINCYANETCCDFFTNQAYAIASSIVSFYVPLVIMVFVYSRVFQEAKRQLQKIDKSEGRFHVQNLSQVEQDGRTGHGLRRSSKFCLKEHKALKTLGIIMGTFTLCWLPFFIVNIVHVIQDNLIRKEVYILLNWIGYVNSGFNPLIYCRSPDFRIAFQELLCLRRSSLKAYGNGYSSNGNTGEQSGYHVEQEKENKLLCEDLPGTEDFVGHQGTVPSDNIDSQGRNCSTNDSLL

Q: CC(C)(Cc1cccc(CC(=O)NCc2ccc(Cl)c(Cl)c2)c1)NC[C@H](O)c1ccc(O)c(NS(C)(=O)=O)c1 [(R)-N-(3,4-dichlorobenzyl)-2-(3-(2-(2-hydroxy-2-(4-hydroxy-3-(methylsulfonamido)phenyl)ethylamino)-2-methylpropyl)phenyl)acetamide] was tested. Which pEC50 did it give?
A: Its pEC50 is 10.15.
